Reference: patent US7196119B2, “Development of new selective estrogen receptor modulators” (The Regents of the University of California, priority 2003, dated 2007)
“Also recorded” adds a separate entry of the source. Where two headings read alike, the source gives them in different places.

Columns and labels:
[1] = tested on: GABAB receptor-mediated outward current in hypothalamic arcuate neurons (membrane associated estrogen receptor); assay: Whole-cell patch voltage clamp: attenuation of the baclofen-induced GABAB response (GIRK outward current) in hypothalamic slices; format: cell-based, guinea pig
[2] = target: T1, full length (ER)α (Homo sapiens, UniProt P03372); assay: Estrogen receptor binding assay (spin column, [3H]estradiol competition)
T1 construct: purchased Pan Vera Corp, Madison, Wis., USA
T1 sequence (P03372 1-595): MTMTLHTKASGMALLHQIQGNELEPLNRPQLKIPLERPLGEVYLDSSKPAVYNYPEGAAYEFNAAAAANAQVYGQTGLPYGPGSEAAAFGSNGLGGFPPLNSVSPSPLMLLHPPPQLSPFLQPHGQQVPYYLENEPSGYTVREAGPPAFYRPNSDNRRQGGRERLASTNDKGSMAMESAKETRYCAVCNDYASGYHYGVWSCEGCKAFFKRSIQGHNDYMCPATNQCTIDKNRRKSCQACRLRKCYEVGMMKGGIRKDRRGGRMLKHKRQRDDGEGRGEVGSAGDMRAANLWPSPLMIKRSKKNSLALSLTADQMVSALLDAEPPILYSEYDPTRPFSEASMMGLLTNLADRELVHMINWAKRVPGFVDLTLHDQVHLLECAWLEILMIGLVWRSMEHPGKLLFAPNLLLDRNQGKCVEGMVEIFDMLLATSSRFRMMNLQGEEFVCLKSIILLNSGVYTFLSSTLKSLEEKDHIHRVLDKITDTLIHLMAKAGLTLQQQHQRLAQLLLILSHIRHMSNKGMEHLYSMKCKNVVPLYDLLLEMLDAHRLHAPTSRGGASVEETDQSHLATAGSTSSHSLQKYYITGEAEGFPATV

[3] = target: T2, full length (ER)β (Homo sapiens, UniProt Q92731); assay: as above
T2 construct: to full length (ER)α or (ER)β*; purchased Pan Vera Corp, Madison, Wis., USA
T2 sequence (Q92731 whole entry): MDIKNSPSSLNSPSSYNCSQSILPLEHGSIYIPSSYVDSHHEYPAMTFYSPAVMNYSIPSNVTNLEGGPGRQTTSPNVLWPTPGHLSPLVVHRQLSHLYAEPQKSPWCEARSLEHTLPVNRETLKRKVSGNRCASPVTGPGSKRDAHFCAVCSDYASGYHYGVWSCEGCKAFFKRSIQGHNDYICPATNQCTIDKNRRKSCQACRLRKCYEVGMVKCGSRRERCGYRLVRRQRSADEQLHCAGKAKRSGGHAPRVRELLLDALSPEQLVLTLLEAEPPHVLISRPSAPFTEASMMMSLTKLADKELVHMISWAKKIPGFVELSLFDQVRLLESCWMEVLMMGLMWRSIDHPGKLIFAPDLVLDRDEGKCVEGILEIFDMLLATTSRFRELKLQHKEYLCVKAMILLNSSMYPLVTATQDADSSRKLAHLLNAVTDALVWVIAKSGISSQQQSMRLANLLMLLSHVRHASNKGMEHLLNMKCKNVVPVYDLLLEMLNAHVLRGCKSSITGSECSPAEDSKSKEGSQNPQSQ

[4] = tested on: uteri; assay: Uterotropic action (uterine size/weight) in ovariectomized mice; format: in vivo, C57BL/6 mice
Description: Wild-type C57BL/6 mice in these studies were obtained from Jackson laboratories. All animals were maintained under controlled temperature (25° C.) and photoperiod conditions (14-h light, 10-h dark; lights on between 0700 and 2100) with food and water ad libitum. Adult mice were ovariectomized under isoflurane anesthesia, and allowed to recover for 1 week. […] The uteri were collected, weighed and fixed in 4% paraformaldehyde for later histological analysis (data not shown).

COc1ccc2c(c1)CC[C@@H]1[C@@H]2CC[C@]2(C)[C@@H](NCCCCCCN3C(=O)C=CC3=O)CC[C@@H]12 [Compound U73122]
effect on the 17β-estradiol-induced suppression of the GABAB response ([1]; 10 μM, with 17β-estradiol): blocked

4-hydroxytamoxifen
block of the baclofen response [1]: 25%
Relative binding affinity (ER)α [2]: 36%
Relative binding affinity (ER)β [3]: 43%

Ac-LGLNLKEYNLV-OH [Gq peptide]
effect on the 17β-estradiol-induced suppression of the GABAB response [1]: significantly blocked

N#CC(=C(/N)Sc1ccccc1N)/C(C#N)=C(/N)Sc1ccccc1N [Compound U0126]
effect on the 17β-estradiol-induced suppression of the GABAB response ([1]; 5 μM, with 17β-estradiol): did not affect 17β-estradiol inhibition of baclofen responses

CC/C(=C(\c1ccccc1)c1ccc(OCCN(C)C)cc1)c1ccccc1 [Tamoxifen, tamoxifen]
R2/R1 (second over first baclofen response) [1]: 60.4±6.6%
effect on the 17β-estradiol-induced suppression of the GABAB response [1]: did not attenuate the effects of 17β-estradiol
effect on the baclofen (GABAB) response [1]: inactive

COc1cccc(-c2cc(=O)c3ccccc3o2)c1N [PD98059]
effect on the 17β-estradiol-induced suppression of the GABAB response ([1]; 10 μM, with 17β-estradiol): did not affect 17β-estradiol inhibition of baclofen responses
R2/R1 (second over first baclofen response) ([1]; PD98059 (10 μM, in the pipette) + 17β-estradiol, baclofen 5 μM): 66.1±11.8%

Cl.Cl.O=S(=O)(NCCNC/C=C/c1ccc(Br)cc1)c1cccc2cnccc12 [Compound H89]
effect on the 17β-estradiol-induced suppression of the GABAB response ([1]; 10 μM, with 17β-estradiol): blocked

Nc1ncnc2c1ncn2[C@@H]1O[C@@H]2COP(O)(=S)O[C@H]2[C@H]1O (stereo partly shown) [Rp-cAMP]
effect on the 17β-estradiol-induced suppression of the GABAB response ([1]; 200 μM, dialysis, with 17β-estradiol): abolished

C[C@]12CC[C@@H]3c4ccc(OC(=O)c5ccccc5)cc4CC[C@H]3[C@@H]1CC[C@@H]2O [estradiol benzoate]
uterine size ([4]; 1 μg daily for 2 days, compared with oil vehicle): noticeable increase in uterine size

CC(=O)c1c(O)c(C)c(O)c(Cc2c(O)c3c(c(C(=O)/C=C/c4ccccc4)c2O)OC(C)(C)C=C3)c1O [rottlerin]
effect on the 17β-estradiol-induced suppression of the GABAB response [1]: completely blocked

O=C(c1ccc(OCCN2CCCCC2)cc1)c1c(-c2ccc(O)cc2)sc2cc(O)ccc12 [Raloxifene, raloxifene]
effect on the baclofen (GABAB) response [1]: completely mimicked the actions of 17β-estradiol

C[C@]12CC[C@@H]3c4ccc(O)cc4CC[C@H]3[C@@H]1CC[C@@H]2O [17β-estradiol]
R2/R1 (second over first baclofen response) [1]: 58.6±3.4%
decrease in the response to a second application of baclofen [1]: 41%
effect on the baclofen (GABAB) response [1]: no effect

C[C@]12CC[C@@H]3c4ccc(O)cc4CC[C@H]3[C@@H]1CC[C@H]2O [17α-estradiol]
effect on the baclofen (GABAB) response [1]: no effect

CN(C)CCCn1cc(C2=C(c3c[nH]c4ccccc34)C(=O)NC2=O)c2ccccc21.Cl [BIS, bisindolylmaleimide I hydrochloride]
effect on the 17β-estradiol-induced suppression of the GABAB response [1]: nearly eliminated the effects of 17β-estradiol

Cn1c2ccccc2c2c3c(c4c5ccccc5n(CCC#N)c4c21)CNC3=O [Gö6976]
effect on the 17β-estradiol-induced suppression of the GABAB response ([1]; test concentration not given, with 17β-estradiol): without effect

C[C@]12CC[C@@H]3c4ccc(O)cc4C[C@@H](CCCCCCCCC[S+]([O-])CCCC(F)(F)C(F)(F)F)[C@H]3[C@@H]1CC[C@@H]2O (stereo partly shown) [ICI 182, 780]
effect on the baclofen (GABAB) response ([1]; 1 μM, applied alone): no effect
effect on the 17β-estradiol-induced suppression of the GABAB response ([1]; 1 μM, with 17β-estradiol): blocked

CC/C(=C(\c1ccccc1)c1ccc(/C=C/C(=O)O)cc1)c1ccccc1 [GW-5638]
effect on the baclofen (GABAB) response ([1]; 1 μM, applied alone): significantly more efficacious than 17β-estradiol

CC/C(=C(\C(=O)Nc1ccc(OCCN(C)C)cc1)c1ccc(O)cc1)c1ccccc1 [Compound 8, (E,Z)-2-(4-hydroxyphenyl)-3-phenylpent-2-enoic acid [4-(2-dimethylaminoethoxy)-phenyl]amide]
uterotropic actions ([4]; 2 or 5 μg daily for 2 days): no uterotropic actions
effect on the baclofen (GABAB) response ([1]; 10 nM, applied alone): as efficacious as 100 nM 17β-estradiol; also recorded: stronger activator of this rapid 17β-estradiol response than 17β-estradiol
effect on the baclofen (GABAB) response ([1]; 10 nM, applied alone, listed as compound 8): inhibited the baclofen response
binding affinity for nuclear (ER)α compared to that of 17β-estradiol ([2]; fold reduction versus 17β-estradiol): approximately one million-fold reduced binding affinity
Relative binding affinity (ER)α ([2]; percentage of the potency of 17β-estradiol (IC50 estradiol / IC50 ligand x 100)): 4.3 × 10^−6%

COc1ccc2c(c1)CC[C@@H]1[C@@H]2CC[C@]2(C)[C@@H](NCCCCCCN3C(=O)CCC3=O)CC[C@@H]12 [Compound U73343]
effect on the 17β-estradiol-induced suppression of the GABAB response ([1]; 10 μM, with 17β-estradiol): no effect
